The values below come from patent US12054497B2, “Substituted heterocyclic fused cyclic compound, preparation method therefor and pharmaceutical use thereof” (GENFLEET THERAPEUTICS (SHANGHAI) INC., priority 2019, dated 2024).

As usually defined, the IC50 is the concentration at which inhibition is half-maximal. For orientation: Cmax means the maximum level reached in the sampled fluid or tissue. What is called Tmax is the time at which the peak concentration occurs.

Read-outs that look alike come from different tables or passages of the source.

Data set [1] concerns NCI-H358 cells with Kras G12C mutation. Nature of the data set: Cell proliferation inhibition experiment, 3D spheroid, CellTiter-Glo (Test Example 1). The settings on record: 5 days. Format: cell-based, human. In short, it runs like this:
(§1)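 NCI-H358 (800 cells/well) and A549 (400 cells/well) grown overnight as 3D spheroids in 2% FBS medium, then exposed to compound dilution series (3.16-fold, 0.1% DMSO) for 5 days. CellTiter-Glo luminescence read; inhibition relative to DMSO and blank, IC50 by four-parameter fit.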
(Cellular ATP, detected with luciferase, serves as a proxy for viable cell number.)

Data set [2] concerns A549 cells with Kras G12S mutation. The description is as above. Type of data set: cell-based, human. The settings on record: 5 days. The essentials:
as §1

Data set [3] is described as follows: Pharmacokinetic evaluation on mice, intragastric (PO) administration (Test Example 6). The following applies: mouse, plasma, PO 15 mg/kg, male CD-1 mice; for bioavailability: read-out: F (bioavailability); for Cmax: read-out: Cmax; for Tmax: read-out: Tmax. Format: in vivo. As to the method: Experimental objective: male CD-1 mice were chosen as tested animals, and the LC-MS-MS method was employed to measure the concentrations of a tested compound in blood plasma of a mouse intravenously and intragastrically administrated with the tested compound at different times. The pharmacokinetic behaviors of tested compounds in mice were studied, and the pharmacokinetic characteristics thereof were evaluated.
Experimental scheme: experimental animals: 18 healthy adult male CD-1 mice (6 to 8 weeks old, and body weight about 30 g) were divided into 6 groups according to the principle of similar body weights: 3 mice in each of IV groups (3 groups), and 3 mice in each of PO groups (3 groups). The animals were purchased from Shanghai Jihui Laboratory Animal Care Co., Ltd.
Formulation: IV group: taking 10 mL of sample solution for example, 4 mg of sample was weighed, orderly added with 0.5 mL of DMSO and […], then added with […] of HP-p-CD, finally added with water to a constant volume of 10 mL, and stirred and subjected to ultrasonic irradiation, thereby obtaining a 0.4 mg/mL clear solution. PO group: an appropriate amount of sample was weighed, orderly added with appropriate amounts of Labrasol and water in a volume ratio of 10:40, and stirred and subjected to ultrasonic irradiation, thereby obtaining a 1.5 mg/mL uniform solution.
Administration: after being deprived of food for one night, the IV groups were intravenously administrated with the formulated solutions, respectively, with an injection volume of 5 mL/kg and a dosage of 2 mg/kg. The PO groups were intragastrically administrated with the formulated solutions, respectively, with an injection volume of […] and a dosage of 15 mg/kg.
Experimental operations: after the intravenous injection groups and the intragastric administration groups of the male CD-1 mice were administrated with the tested compounds, 110 ul of blood was sampled at the following time points: 0.0833, 0.25, 0.5, 1, 2, 4, 6, 8, and 24 hours. The sampled blood was placed into an anticoagulant tube which was added with K2EDTA in advance and preserved in dry ice. The tube was centrifuged for 15 minutes to separate blood plasma, and the separated blood plasma was preserved at −70° C. The animals were allowed to be fed after 4 hours of administration. The LC-MS-MS method was employed to measure the concentration of the tested compounds in the blood plasma after the intravenous and intragastric administration to the mice. The linear range of the method was 1-3000 ng/ml. The blood plasma samples were analyzed after protein precipitation with ACN.

Data set [4] has as its system phosphorylated ERK in MIA PaCa2 cells with Kras G12C mutation. Nature of the data set: p-ERK HTRF assay for cells (Test Example 2). Type of data set: cell-based, human. The essentials: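 MIA PaCa2 cells (2.5E4/well, seeded overnight) treated 2 h with compound in a 3.16-fold series at 0.1% DMSO. Cells lysed 30 min; p-ERK read by HTRF after 4 h antibody incubation. Inhibition relative to DMSO and blank; IC50 by four-parameter fit.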
(In general: In TR-FRET formats the signal depends on donor and acceptor labels being close together.)

[5] abbreviates: Homo sapiens, MIA PaCa-2, 2 h, MIA PaCa2 cells, 2 hours with compound, read-out: p-ERK IC50.
[6] abbreviates: MIA PaCa2 cells, 2 hours with compound, read-out: p-ERK IC50.

For the compound `C=CC(=O)N1CCN2c3c(c(=O)n(-c4c(C(C)C)ncnc4C(C)C)c4nc(-c5c(O)cccc5F)c(Cl)cc34)N(C)C(=O)[C@H]2C1` [Compound Z48], the IC50 in data set [1] (Homo sapiens, NCI-H358, 120 h) turned out to be 3 nM. Moreover, the IC50 in data set [2] (Homo sapiens, A549, 120 h) is greater than 10 µM. In data set [3], the bioavailability was 38.1%, the Cmax was 1250 ng/mL and the Tmax worked out at 0.5 h. The IC50 in data set [4] (setting [5]) worked out at 52 nM.

Regarding `C=CC(=O)N1CCN2c3c(c(=O)n(-c4c(C)ccnc4C(C)C)c4nc(-c5c(O)cccc5F)c(F)cc34)N(C)C(=O)[C@H]2C1` (single isomer, unassigned) [Compound Z9-2], the IC50 was 15 nM in data set [1], greater than 10 µM in data set [2] and 221 nM in data set [4] (setting [5]). Further, the bioavailability in data set [3] stood at 103%. Also, the Cmax in data set [3] was found to be 13200 ng/mL. For the same compound, in data set [3], the Tmax was 1 h.

For the compound `C=CC(=O)N1CCN2c3c(c(=O)n(-c4c(C)ccnc4C(C)C)c4nc(-c5c(O)cccc5F)c(Cl)cc34)N(C)C(=O)[C@H]2C1` (single isomer, unassigned) [Compound Z25-2], the IC50 in data set [1] was found to be 3 nM. In data set [2], this compound came in with an IC50 greater than 30 µM. Also, in data set [3], the bioavailability is 93.5%, the Cmax came to 6640 ng/mL and the Tmax came to 1.93 h. In data set [4] (Homo sapiens, MIA PaCa-2, 2 h, read-out: p-ERK IC50, MIA PaCa2 cells, 2 hours with compound), the IC50 was 29 nM.

Turning to `C=CC(=O)N1C[C@@H]2C(=O)N(C)c3c(c4cc(Cl)c(-c5c(O)cccc5F)nc4n(-c4c(C)ccnc4C(C)C)c3=O)N2C[C@H]1C` (single isomer, unassigned) [Compound Z27-2], the figures for the IC50 in data set [1], in data set [2] and in data set [4] (setting [6]) were 1 nM, 19 µM and 11 nM, respectively. Further, the bioavailability in data set [3] was found to be 96.8%. In addition, in data set [3], the Cmax stood at 3660 ng/mL. For the same compound, the Tmax in data set [3] came to 1.74 h.

As to `C=CC(=O)N1CCN2c3c(c(=O)n(-c4c(C)ccnc4C(C)C)c4nc(-c5c(O)cccc5F)c(F)cc34)OC[C@H]2C1` [Compound Z1, (4aR)-3-acryloyl-11-fluoro-10-(2-fluoro-6-hydroxyphenyl)-8-(2-isopropyl-4-methylpyridin-3-yl)-1,2,3,4,4a,5-hexahydropyrazino[1′,2′:4,5][1,4]oxazino[2,3-c][1,8]naphthyridin-7(8H)-one], the IC50 in data set [1] (Homo sapiens, NCI-H358, 120 h) was 31 nM; in data set [2] (Homo sapiens, A549, 120 h) it was greater than 10 µM; in data set [4] (setting [5]) it was 432 nM. The Cmax in data set [3] was found to be 2600 ng/mL. In addition, the Tmax in data set [3] was found to be 0.25 h.

As to `[2H]C([2H])([2H])N1C(=O)[C@H]2CN(C(=O)C=C)CCN2c2c1c(=O)n(-c1c(C)ccnc1C(C)C)c1nc(-c3c(O)cccc3F)c(Cl)cc21` (single isomer, unassigned) [Compound Z26-2], the IC50 in data set [1] is 3 nM; in data set [2], greater than 30 µM; in data set [4] (read-out: p-ERK IC50, MIA PaCa2 cells, 2 hours with compound) it was 62 nM.

As for `C=CC(=O)N1CCN2c3c(c(=O)n(-c4c(C(C)C)ncnc4C(C)C)c4c(F)c(-c5c(O)cccc5F)c(Cl)cc34)NC(=O)[C@H]2C1` (single isomer, unassigned) [Compound Z37-1], the IC50 in data set [1] is 0.7 nM; in data set [2], greater than 30 µM; in data set [4] (setting [5]) it was 11 nM.

`C=CC(=O)N1C[C@@H]2C(=O)N(C)c3c(c4cc(F)c(-c5c(O)cccc5F)nc4n(-c4c(C)ccnc4C(C)C)c3=O)N2C[C@H]1C` (single isomer, unassigned) [Compound Z10-2] showed an IC50 in data set [1] of 4 nM. Further, in data set [2], the IC50 came out at 24.6 µM. For the same compound, in data set [3], the bioavailability worked out at 59.2%, the highest concentration (Cmax) amounted to 3960 ng/mL and the Tmax was 1 h. For the same compound, in data set [4] (setting [6]), the IC50 was found to be 34 nM.
